Assay results reported in patent US8614290B2, “Cancer imaging and treatment” (Technische Universitat Munchen, priority 2007, dated 2013).
Numbered stars: 1 amine (or outer) side, 2 acyl side, 3 side chain; on linkers, the order of the positions; unused ones are H or OH. Bridge positions count the residues as written; N and C are the ends. Square brackets hold non-standard residues; d marks the D form. Peptide text beside a SMILES is read from it. I, II: the chains in the order shown. * marks the point of attachment. C16 diacid = O=C(O)CCCCCCCCCCCCCCC(=O)*; Sebacoyl = O=C(CCCCCCCCC(=O)[*:2])[*:1]; 2Nal = N[C@@H](Cc1ccc2ccccc2c1)C(=O)O; Suberoyl = O=C(CCCCCCC(=O)[*:2])[*:1]; Adipoyl = O=C(CCCCC(=O)[*:2])[*:1]; Glutaryl = O=C(CCCC(=O)[*:2])[*:1]; dNMeOrn = CN[C@H](CCCN)C(=O)O; Suc = O=C(CCC(=O)[*:2])[*:1]; X3 = NC(=O)CCCC(=O)*

molecular target: human CXCR4 (Homo sapiens, UniProt P61073); assay: Competitive receptor binding assay on Jurkat cells with 125I-CPCR4 as tracer; design: Jurkat cells that endogenously express the CXCR4 receptor; endogenous in cells; host or cells: Jurkat cells; conditions: Table 1, Nα-monomethylated cyclic pentapeptides; read-out: IC50
Protocol: For receptor binding assays cells were resuspended in PBS/0.2% BSA. A total of 200 μl of the suspension containing 400,000 Jurkat cells were incubated with 25 μl of the tracer solution (containing 3.1 kBq, approx. 0.1 nM) and 25 μl of the diluent or the competitor at different concentrations. […] After shaking for 2 h at room temperature, the incubation was terminated by centrifugation at 1300 rpm for 5 min. Cell pellets were washed once with cold PBS followed by a second centrifugation step. Cell bound radioactivity was determined by using a gamma counter. Experiments were repeated 2-3 times in triplicates. IC50 values of the compounds were calculated by nonlinear regression using GraphPad Prism (GraphPad Prism 4.0 Software, Inc., San Diego, Calif., USA). Each data point is the average of three determinations.

human CXCR4, sequence (P61073 whole entry): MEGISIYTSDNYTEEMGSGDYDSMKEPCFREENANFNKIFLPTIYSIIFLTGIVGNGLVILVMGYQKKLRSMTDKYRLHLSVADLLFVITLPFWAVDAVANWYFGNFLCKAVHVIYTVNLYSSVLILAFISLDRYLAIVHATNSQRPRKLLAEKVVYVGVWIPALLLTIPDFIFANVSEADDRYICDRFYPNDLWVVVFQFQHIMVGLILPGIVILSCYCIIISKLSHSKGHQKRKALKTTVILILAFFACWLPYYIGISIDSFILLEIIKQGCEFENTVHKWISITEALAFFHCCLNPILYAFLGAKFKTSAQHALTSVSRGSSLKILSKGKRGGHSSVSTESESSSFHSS

SMILES	IC50 [µM]
CN1C(=O)[C@@H](Cc2ccc(O)cc2)NC(=O)CNC(=O)[C@H](Cc2ccc3ccccc3c2)NC(=O)[C@H](CCCNC(=N)N)NC(=O)[C@@H]1CCCNC(=N)N [OD1, cyc[D-Tyr-(Me)Arg-Arg-Nal-Gly]]	0.023
CN1C(=O)[C@H](CCCNC(=N)N)NC(=O)[C@@H](Cc2ccc(O)cc2)NC(=O)CNC(=O)[C@H](Cc2ccc3ccccc3c2)NC(=O)[C@@H]1CCCNC(=N)N [OD3, cyc[D-Tyr-Arg-(Me)Arg-Nal-Gly]]	0.031

same assay, conditions: Table 4, Orn-Nδ and/or Orn-Nα-modified pentapeptides; read-out: IC50

SMILES	IC50 [µM]
N=C(N)NCCC[C@@H]1NC(=O)[C@H](CCCN(Cc2ccccc2)C(=O)c2ccc(F)cc2)NC(=O)[C@@H](Cc2ccc(O)cc2)NC(=O)CNC(=O)[C@H](Cc2ccc3ccccc3c2)NC1=O [cyc[D-Tyr-Orn(Bz,FB)-Arg-Nal-Gly]] (HELM PEPTIDE1{[O=C([C@H](Cc1ccc2ccccc2c1)N[*:1])[*:2]].G.[dY].[O=C(c1ccc(F)cc1)N(CCC[C@H](N[*:1])C(=O)[*:2])Cc1ccccc1].R}$PEPTIDE1,PEPTIDE1,1:R1-5:R2$$$V2.0)	0.1
N=C(N)NCCC[C@@H]1NC(=O)[C@H](CCCNCc2cccc3ccccc23)NC(=O)[C@@H](Cc2ccc(O)cc2)NC(=O)CNC(=O)[C@H](Cc2ccc3ccccc3c2)NC1=O [cyc[D-Tyr-Orn(N1)-Arg-Nal-Gly]] (HELM PEPTIDE1{[dY].[O=C([C@H](CCCNCc1cccc2ccccc12)N[*:1])[*:2]].R.[O=C([C@H](Cc1ccc2ccccc2c1)N[*:1])[*:2]].G}$PEPTIDE1,PEPTIDE1,1:R1-5:R2$$$V2.0)	0.04 ± 0.003

same assay, conditions: Table 5, D-Orn derivatives, His, Phe; read-out: IC50

SMILES	IC50 [µM]
CN(CCC[C@@H]1C(=O)N[C@@H](CCCNC(=N)N)C(=O)N[C@@H](Cc2ccc3ccccc3c2)C(=O)NCC(=O)N[C@H](Cc2ccc(O)cc2)C(=O)N1C)C(=O)c1ccc(F)cc1 [cyc[D-Tyr-(Me)D-Orn(Me,FB)-Arg-Nal-Gly]] (HELM PEPTIDE1{[O=C([C@H](Cc1ccc2ccccc2c1)N[*:1])[*:2]].G.[dY].[CN(CCC[C@H](C(=O)[*:2])N(C)[*:1])C(=O)c1ccc(F)cc1].R}$PEPTIDE1,PEPTIDE1,1:R1-5:R2$$$V2.0)	0.059
N=C(N)NCCC[C@@H]1NC(=O)[C@H](Cc2c[nH]cn2)NC(=O)[C@@H](Cc2ccc(O)cc2)NC(=O)CNC(=O)[C@H](Cc2ccc3ccccc3c2)NC1=O [cyc[D-Tyr-His-Arg-Nal-Gly]] (HELM PEPTIDE1{[O=C([C@H](Cc1ccc2ccccc2c1)N[*:1])[*:2]].G.[dY].H.R}$PEPTIDE1,PEPTIDE1,1:R1-5:R2$$$V2.0)	0.03

same assay, conditions: Table 10, dimers and monomers; read-out: IC50

SMILES	IC50 [µM]
CN1C(=O)[C@@H](Cc2ccc(O)cc2)NC(=O)CNC(=O)[C@H](Cc2ccc3ccccc3c2)NC(=O)[C@H](CCCN=C(N)N)NC(=O)[C@H]1CCCNC(=O)CNC(=O)CC(CC(=O)NCC(=O)NCCC[C@@H]1C(=O)N[C@@H](CCCN=C(N)N)C(=O)N[C@@H](Cc2ccc3ccccc3c2)C(=O)NCC(=O)N[C@H](Cc2ccc(O)cc2)C(=O)N1C)NC(=O)CCCCCNC(=O)CN1CCN(CC(=O)O)CCN(CC(=O)O)CCN(CC(=O)O)CC1 (single isomer, unassigned) [NMe-D-Orn + Gly DOTAAhxbetaAsp]	0.0123
N=C(N)NCCC[C@@H]1NC(=O)[C@H](CCCNC(=O)CON=CCCCC=NOCC(=O)NCCC[C@@H]2NC(=O)[C@@H](Cc3ccc(O)cc3)NC(=O)CNC(=O)[C@H](Cc3ccc4ccccc4c3)NC(=O)[C@H](CCCNC(=N)N)NC2=O)NC(=O)[C@@H](Cc2ccc(O)cc2)NC(=O)CNC(=O)[C@H](Cc2ccc3ccccc3c2)NC1=O [Code A22, glutaric aldehyde-(cyclo[D-Tyr-Orn(amineoxyacetyl)-Arg-2-Nal-Gly])2]	0.0579
CN1C(=O)[C@@H](Cc2ccc(O)cc2)NC(=O)CNC(=O)[C@H](Cc2ccc3ccccc3c2)NC(=O)[C@H](CCCNC(=N)N)NC(=O)[C@H]1CCCNC(=O)CCCC(N)=O [Monomer + Glutaric acid monoamide] (cyclo([2Nal]G[dY][dNMeOrn](X3)R))	0.0665
CN1C(=O)[C@@H](Cc2ccc(O)cc2)NC(=O)CNC(=O)[C@H](Cc2ccc3ccccc3c2)NC(=O)[C@H](CCCNC(=N)N)NC(=O)[C@H]1CCCNC(=O)CNC(=O)C[C@H](NC(=O)CCCCCNC(=O)CN1CCN(CC(=O)O)CCN(CC(=O)O)CCN(CC(=O)O)CC1)C(=O)NCC(=O)NCCC[C@@H]1C(=O)N[C@@H](CCCNC(=N)N)C(=O)N[C@@H](Cc2ccc3ccccc3c2)C(=O)NCC(=O)N[C@H](Cc2ccc(O)cc2)C(=O)N1C [NMe-D-Orn + Gly DOTAAhxAsp]	0.038
CN1C(=O)[C@@H](Cc2ccc(O)cc2)NC(=O)CNC(=O)[C@H](Cc2ccc3ccccc3c2)NC(=O)[C@H](CCCN=C(N)N)NC(=O)[C@H]1CCCNC(=O)CNC(=O)CC(=O)NCC(=O)NCCC[C@@H]1C(=O)N[C@@H](CCCN=C(N)N)C(=O)N[C@@H](Cc2ccc3ccccc3c2)C(=O)NCC(=O)N[C@H](Cc2ccc(O)cc2)C(=O)N1C [NMe-D-Orn + Gly n = 1]	0.00548
CN1C(=O)[C@@H](Cc2ccc(O)cc2)NC(=O)CNC(=O)[C@H](Cc2ccc3ccccc3c2)NC(=O)[C@H](CCCNC(=N)N)NC(=O)[C@H]1CCCNC(=O)C[C@H](NC(=O)CCCCCNC(=O)CN1CCN(CC(=O)O)CCN(CC(=O)O)CCN(CC(=O)O)CC1)C(=O)NCCC[C@@H]1C(=O)N[C@@H](CCCNC(=N)N)C(=O)N[C@@H](Cc2ccc3ccccc3c2)C(=O)NCC(=O)N[C@H](Cc2ccc(O)cc2)C(=O)N1C [NMe-D-Orn DOTAAhxAsp]	0.0921
CN1C(=O)[C@@H](Cc2ccc(O)cc2)NC(=O)CNC(=O)[C@H](Cc2ccc3ccccc3c2)NC(=O)[C@H](CCCNC(=N)N)NC(=O)[C@H]1CCCNC(=O)C[C@H](NC(=O)CCCCCNC(=O)CN1CCN(CC(=O)O)CCN(CC(=O)O)CCN(CC(=O)O)CC1)C(=O)NCCC[C@@H]1C(=O)N[C@@H](CCCNC(=N)N)C(=O)N[C@@H](Cc2ccc3ccccc3c2)C(=O)NCC(=O)N[C@H](Cc2ccc(O)cc2)C(=O)N1C [NMe-D-Orn InDOTAAhxAsp]	0.0379
CN1C(=O)[C@@H](Cc2ccc(O)cc2)NC(=O)CNC(=O)[C@H](Cc2ccc3ccccc3c2)NC(=O)[C@H](CCCNC(=N)N)NC(=O)[C@H]1CCCNC(=O)CCC(=O)NCCC[C@@H]1C(=O)N[C@@H](CCCNC(=N)N)C(=O)N[C@@H](Cc2ccc3ccccc3c2)C(=O)NCC(=O)N[C@H](Cc2ccc(O)cc2)C(=O)N1C [NMe-D-Orn n = 2] (I: cyclo([2Nal]G[dY][dNMeOrn]R) / II: cyclo([2Nal]G[dY][dNMeOrn]R); linker I:4-II:4 via Suc)	0.00661
CN1C(=O)[C@@H](Cc2ccc(O)cc2)NC(=O)CNC(=O)[C@H](Cc2ccc3ccccc3c2)NC(=O)[C@H](CCCN=C(N)N)NC(=O)[C@H]1CCCNC(=O)CCCCC(=O)NCCC[C@@H]1C(=O)N[C@@H](CCCN=C(N)N)C(=O)N[C@@H](Cc2ccc3ccccc3c2)C(=O)NCC(=O)N[C@H](Cc2ccc(O)cc2)C(=O)N1C [NMe-D-Orn n = 4] (I: cyclo([2Nal]G[dY][dNMeOrn]R) / II: cyclo([2Nal]G[dY][dNMeOrn]R); linker I:4-II:4 via Adipoyl)	0.00365
CN1C(=O)[C@@H](Cc2ccc(O)cc2)NC(=O)CNC(=O)[C@H](Cc2ccc3ccccc3c2)NC(=O)[C@H](CCCN=C(N)N)NC(=O)[C@H]1CCCNC(=O)CCCCCCCCC(=O)NCCC[C@@H]1C(=O)N[C@@H](CCCN=C(N)N)C(=O)N[C@@H](Cc2ccc3ccccc3c2)C(=O)NCC(=O)N[C@H](Cc2ccc(O)cc2)C(=O)N1C [NMe-D-Orn n = 8] (I: cyclo([2Nal]G[dY][dNMeOrn]R) / II: cyclo([2Nal]G[dY][dNMeOrn]R); linker I:4-II:4 via Sebacoyl)	0.00226
CN1C(=O)[C@@H](Cc2ccc(O)cc2)NC(=O)CNC(=O)[C@H](Cc2ccc3ccccc3c2)NC(=O)[C@H](CCCNC(=N)N)NC(=O)[C@H]1CCCNC(=O)CCCCCCCCCCCCCCC(=O)NCCC[C@@H]1C(=O)N[C@@H](CCCNC(=N)N)C(=O)N[C@@H](Cc2ccc3ccccc3c2)C(=O)NCC(=O)N[C@H](Cc2ccc(O)cc2)C(=O)N1C [NMe-D-Orn n = 14] (I: cyclo([2Nal]G[dY][dNMeOrn]R) / II: cyclo([2Nal]G[dY][dNMeOrn]R); linker I:4-II:4 via C16 diacid (inferred); ring closure inferred)	0.0335

same assay, conditions: read-out: IC50 (affinity)

SMILES	IC50 [µM]
N=C(N)NCCC[C@@H]1NC(=O)[C@H](CCCNC(=O)CON=CCCCC=NOCC(=O)NCCC[C@@H]2NC(=O)[C@@H](Cc3ccc(O)cc3)NC(=O)CNC(=O)[C@H](Cc3ccc4ccccc4c3)NC(=O)[C@H](CCCNC(=N)N)NC2=O)NC(=O)[C@@H](Cc2ccc(O)cc2)NC(=O)CNC(=O)[C@H](Cc2ccc3ccccc3c2)NC1=O [Code A22, glutaric aldehyde-(cyclo[D-Tyr-Orn(amineoxyacetyl)-Arg-2-Nal-Gly])2]	0.058 ± 0.0042
CN1C(=O)[C@@H](Cc2ccc(O)cc2)NC(=O)CNC(=O)[C@H](Cc2ccc3ccccc3c2)NC(=O)[C@H](CCCNC(=N)N)NC(=O)[C@H]1CCCNC(=O)CCCC(=O)NCCC[C@@H]1C(=O)N[C@@H](CCCNC(=N)N)C(=O)N[C@@H](Cc2ccc3ccccc3c2)C(=O)NCC(=O)N[C@H](Cc2ccc(O)cc2)C(=O)N1C [NMe-D-Orn n = 3] (I: cyclo([2Nal]G[dY][dNMeOrn]R) / II: cyclo([2Nal]G[dY][dNMeOrn]R); linker I:4-II:4 via Glutaryl)	0.00428 ± 0.0023
CN1C(=O)[C@@H](Cc2ccc(O)cc2)NC(=O)CNC(=O)[C@H](Cc2ccc3ccccc3c2)NC(=O)[C@H](CCCN=C(N)N)NC(=O)[C@H]1CCCNC(=O)CCCCC(=O)NCCC[C@@H]1C(=O)N[C@@H](CCCN=C(N)N)C(=O)N[C@@H](Cc2ccc3ccccc3c2)C(=O)NCC(=O)N[C@H](Cc2ccc(O)cc2)C(=O)N1C [NMe-D-Orn n = 4] (I: cyclo([2Nal]G[dY][dNMeOrn]R) / II: cyclo([2Nal]G[dY][dNMeOrn]R); linker I:4-II:4 via Adipoyl)	0.00442
CN1C(=O)[C@@H](Cc2ccc(O)cc2)NC(=O)CNC(=O)[C@H](Cc2ccc3ccccc3c2)NC(=O)[C@H](CCCNC(=N)N)NC(=O)[C@H]1CCCNC(=O)CCCCCCC(=O)NCCC[C@@H]1C(=O)N[C@@H](CCCNC(=N)N)C(=O)N[C@@H](Cc2ccc3ccccc3c2)C(=O)NCC(=O)N[C@H](Cc2ccc(O)cc2)C(=O)N1C [NMe-D-Orn n = 6] (I: cyclo([2Nal]G[dY][dNMeOrn]R) / II: cyclo([2Nal]G[dY][dNMeOrn]R); linker I:4-II:4 via Suberoyl)	0.00251 ± 0.0007
CN1C(=O)[C@@H](Cc2ccc(O)cc2)NC(=O)CNC(=O)[C@H](Cc2ccc3ccccc3c2)NC(=O)[C@H](CCCN=C(N)N)NC(=O)[C@H]1CCCNC(=O)CCCCCCCCC(=O)NCCC[C@@H]1C(=O)N[C@@H](CCCN=C(N)N)C(=O)N[C@@H](Cc2ccc3ccccc3c2)C(=O)NCC(=O)N[C@H](Cc2ccc(O)cc2)C(=O)N1C [NMe-D-Orn n = 8] (I: cyclo([2Nal]G[dY][dNMeOrn]R) / II: cyclo([2Nal]G[dY][dNMeOrn]R); linker I:4-II:4 via Sebacoyl)	0.00212 ± 0.0009
CN1C(=O)[C@@H](Cc2ccc(O)cc2)NC(=O)CNC(=O)[C@H](Cc2ccc3ccccc3c2)NC(=O)[C@H](CCCNC(=N)N)NC(=O)[C@H]1CCCNC(=O)CCCCCCCCCCCC(=O)NCCC[C@@H]1C(=O)N[C@@H](CCCNC(=N)N)C(=O)N[C@@H](Cc2ccc3ccccc3c2)C(=O)NCC(=O)N[C@H](Cc2ccc(O)cc2)C(=O)N1C [NMe-D-Orn n = 11]	0.0111 ± 0.0034
